Source: patent US5998430A, “Use of trospium chloride and 2-component system for the same” (Dr. R. Pfleger Chemische Fabrik GmbH, priority 1996, dated 1999)

Tests used:
bladder tissue [1] = settings: rabbits; intravesical instillation of crushed tablets; cited from earlier work
[2] = compared with administration of equivalent oral dosages; cited from earlier work
[3] = plasma concentrations of trospium chloride after intravesicular instillation; format: in vivo; settings: intravesicular instillation of 7.5 mg trospium chloride/20 ml; period of 12 hours; sensitive, validated measuring method
Method: It is particularly advantageous to prepare said aqueous solution with a pH-value≥4.5 immediately prior to administration, in order to prevent any decomposition of the active agent trospium chloride. In particular, the pH-value of the inventive formulation is 5.0 to 7.5, so that it falls entirely within the pH-value range of the normal urine of healthy humans. […] This was confirmed by measuring plasma concentrations of trospium chloride after intravesicular instillation of 7.5 mg trospium chloride/20 ml for a period of 12 hours.

bladder tissue [4] = experiment: study on beagles concerning local compatibility following once daily intravesical instillation over 4 weeks; format: in vivo; settings: selected formulation
[5] = tested on: smooth muscle cells of the detrusor; experiment: internal investigations: direct (musculotropic) action on smooth muscle cells of the detrusor; format: cell-based
Excerpt: It will be appreciated that the active agent trospium chloride acts as an anticholinergic, i.e. it occupies receptors of the parasympathetic nervous system, without causing the effects induced by the natural neurotransmitter acetyl choline (neurotropic action). The anticholinergic power of trospium chloride in vitro is 20 times greater than that of oxybutynin (Eckert R. E., Wilhelm A., Schwantes U., Utz J. Alloussi S., Trautwein W. & Ziegler M., Modulation of the cytoplasmic Ca^2+ concentration of isolated myocytes of the detrusor vesicae by anticholinergics, Akt. Urol. 26, 46, 1995). […] These musculotropic characteristics are particularly important in the case of direct administration to the bladder.

[6] = stability of the aqueous solution during storage and transportation; format: physicochemical
Method: Accordingly, the invention provides for an aqueous trospium chloride solution prepared from two components, as described above. For the aqueous solution to remain stable for a long time during storage and transportation, the pH-value should be lower than 4.5. However, such a solution has never been considered suitable for administration to the bladder and is also unacceptable for physiological reasons. Therefore the invention assumes that the aqueous solution is prepared prior to administration with a pH-value equal to or greater than 4.5, in order to exclude from the outset ageing, storage and transportation problems.

[7] = tested on: isolated myocytes of the detrusor vesicae; settings: greater than that of oxybutynin; cited from earlier work
[8] = oral and rectal administration forms; cited from earlier work

With `CCN(CC)CC#CCOC(=O)C(O)(c1ccccc1)C1CCCCC1` (centres unmarked) [oxybutynin] as the compound, how does the “inflammatory processes in the region of the bladder tissue (histological evaluation)” value (bladder tissue [1]) read?
Its value is “Inflammatory processes were detected”.

And the “absorption following intravesicular instillation” value [2]?
Its value is “absorbed to a greater extent”.

For `O=C(O[C@H]1C[C@H]2CC[C@@H](C1)[N+]21CCCC1)C(O)(c1ccccc1)c1ccccc1` [trospium chloride], which plasma concentrations [3] is on record?
Its plasma concentrations is “At no time plasma concentrations were detected that were above the detection limit”.

What about the “local compatibility (local adverse effects to the bladder tissue)” value (bladder tissue [4]) of the same compound?
Its value is “did not lead to local adverse effects to the bladder tissue”.

And the “direct action on smooth muscle cells of the detrusor (basal Ca^2+ flow)” value [5]?
The value was “inhibition of the basal Ca^2+ flow”.

What about the “pH-value for the aqueous solution to remain stable for a long time” value [6] of the same compound?
The value was “lower than 4.5”.

And the “anticholinergic power in vitro, relative to oxybutynin” value [7]?
Its value is 20 times.

And the “absorption from the intestinal lumen into the system” value [8]?
The value was “poor absorption”.
